From patent publication US4211772A, “Benzopyran glycoside acetals and ketals” (Laboratoires Sarget, priority 1977, dated 1980)
≈ marks a conversion by molar mass, not a printed value. Like-named read-outs stand apart in the source and are kept apart here.

Assays:
[1] = Solubilities in water; assay type: physicochemical; conditions: water; read-out: Solubilities in water
[2] = target: T1, Aldose Reductase (Bos taurus, UniProt P16116); assay: Inhibition of aldose reductase in vitro (enzyme from beef eye lenses, glyceraldehyde substrate); assay type: biochemical; conditions: in DMF solution, read-out: percentages of inhibition (aldose reductase); for inhibition at 100 µM: 10^-4 mole/l; for inhibition at 10 µM: 10^-5 mole/l
T1 construct: The enzyme is extracted from beef eye lenses; from tissue; host or cells: beef eye lenses
Source text: Inhibition of Aldose Reductase In Vitro
The reoxidation of NADPH coupled to the enzymatic reaction was followed spectrophotometrically at 340 nm.

[3] = test system: carragenin edema; assay: Anti-inflammatory activity: carragenin edema test; assay type: in vivo; conditions: Rattus norvegicus, ip, substantially alkaline pH solution, read-out: % inhibition of carragenin edema; for inhibition in vivo at 200 mg/kg: 200 mg/kg i.p.; for inhibition in vivo at 150 mg/kg: 150 mg/kg i.p.; for inhibition in vivo at 300 mg/kg: 300 mg/kg i.p.; for inhibition in vivo at 100 mg/kg: 100 mg/kg i.p.
Protocol: Anti-inflammatory activity
This was determined by the carragenin edema test using male Wistar EOPS rats. Inflammation was induced by the injection of 0.1 ml of a suspension of 5% carragenin in physiological serum into the muscular bundle of the metatarsal region of the posterior paw of the animal. The test substance was administered i.p. in neutralized solution at the same time as the carragenin.
Edema was measured by plethysmometry at different times after the administration of the carragenin.
Tables IV and V show the percentages of inhibition as a function of time and of dosage for certain compounds of the present invention.
The above results were obtained for solutions of substantially alkaline
The reference experiments were performed using physiological serum brough
to a pH approximately the same as the pH of the solutions to be tested.

[4] = test system: capillary resistance; assay: Capillaroprotecting effects: capillary resistance; assay type: in vivo, male OFA EOPS rats
Protocol: (§1) Capillaroprotecting effects
The capillary resistance was determined by a variant of the method of Charlier et al, Arch. Inter. Physiol.

[5] = i.p. toxicity in Swiss EOPS mice, mortality at 14 days; conditions: mouse, in vivo, ip, DMSO solution at 1/2, read-out: percentages of mortality at the end of 14 days
Protocol: The i.p. toxicities of certain compounds of the present invention were determined using male and female Swiss EOPS mice for administrations in DMSO solution at 1/2 under a volume of P/100.

[6] = test system: capillary permeability; assay: Capillaroprotecting effects: capillary permeability; assay type: in vivo, conventional male Wistar rats
Protocol: as §1
The capillary permeability was determined by the method of Charlier et al, Arch. Inter. Physiol.

Structure (SMILES)	solubility [1] [µg/mL]	inhibition at 100 µM [2] [%]	inhibition at 10 µM [2] [%]	inhibition in vivo at 200 mg/kg ([3]; 1/2 h) [%]	inhibition in vivo at 200 mg/kg ([3]; 1 h, 1 h 1/2) [%]	inhibition in vivo at 200 mg/kg ([3]; 1 h, 1 h) [%]	inhibition in vivo at 200 mg/kg ([3]; 2 h, 2 h) [%]	inhibition in vivo at 200 mg/kg ([3]; 3 h, 3 h) [%]	inhibition in vivo at 200 mg/kg ([3]; 4 h, 4 h) [%]	inhibition in vivo at 200 mg/kg ([3]; 5 h, 5 h) [%]	inhibition in vivo at 200 mg/kg ([3]; 6 h, 6 h) [%]	capillary resistance, effect observed ([4]; 25 mg/kg i.p.) [u cm Hg/h]	capillary resistance, effect observed ([4]; 50 mg/kg i.p.) [u cm Hg/h]	mortality at 336 h ([5]; 500 mg/kg i.p.) [%]	mortality at 336 h ([5]; 1000 mg/kg i.p.) [%]	mortality at 336 h ([5]; 2000 mg/kg i.p.) [%]	inhibition in vivo at 300 mg/kg ([3]; 1/2 h) [%]	inhibition in vivo at 300 mg/kg ([3]; 1 h, 1 h 1/2) [%]	inhibition in vivo at 300 mg/kg ([3]; 1 h, 1 h) [%]	inhibition in vivo at 300 mg/kg ([3]; 2 h, 2 h) [%]	also measured
CC1(C)OC[C@H]2O[C@@H](Oc3cc4ccc(=O)oc4cc3O)[C@H](O)[C@@H](O)[C@@H]2O1 [No. 15, 6-O-(4,6-O,O-isopropylidene-β-D-glucosyl) esculetol]	9200 (≈ 24.2 mM)	60	9	18	20	26	13	1	7	10	17	17 ± 11.8	20 ± 12.9	10	0	70					mortality at 336 h ([5]; 1500 mg/kg i.p.): 20%
COc1ccc(-c2cc(=O)c3c(O)cc(O[C@@H]4O[C@H](CO[C@@H]5O[C@@H](C)[C@H](O)[C@H]6OC(C)(C)O[C@@H]56)[C@@H](O)[C@H](O)[C@H]4O)cc3o2)cc1O [No. 32, 7-O-(2,3-O,O-isopropylidene-6-α-L-rhamnosyl-β-D-glucosyl)diosmitin]				8	35	16	43	36	30	20	20				0		0	38	8	44	inhibition in vivo at 150 mg/kg ([3]; 1/2 h): 5%; inhibition in vivo at 150 mg/kg ([3]; 1 h, 1 h 1/2): 37%; inhibition in vivo at 150 mg/kg ([3]; 1 h, 1 h): 17%; inhibition in vivo at 150 mg/kg ([3]; 2 h, 2 h): 49%; inhibition in vivo at 150 mg/kg ([3]; 3 h, 3 h): 43%; inhibition in vivo at 300 mg/kg ([3]; 3 h, 3 h): 31%; inhibition in vivo at 150 mg/kg ([3]; 4 h, 4 h): 42%; inhibition in vivo at 300 mg/kg ([3]; 4 h, 4 h): 32%; inhibition in vivo at 150 mg/kg ([3]; 5 h, 5 h): 37%; inhibition in vivo at 300 mg/kg ([3]; 5 h, 5 h): 43%; inhibition in vivo at 150 mg/kg ([3]; 6 h, 6 h): 34%; inhibition in vivo at 300 mg/kg ([3]; 6 h, 6 h): 36%; percentage reduction of capillary permeability ([6]; 10 mg/kg i.p.): 7%; percentage reduction of capillary permeability ([6]; 75 mg/kg i.p.): 32%
O=c1ccc2cc(O[C@@H]3O[C@@H]4COC5(CCCCC5)O[C@H]4[C@H](O)[C@H]3O)c(O)cc2o1 [No. 16, 6-O-(4,6-O,O-cyclohexylidene-β-D-glucosyl) esculetol]	1250 (≈ 2.97 mM)	63	14	59	45	59	46	30	23	27	24	8.8 ± 6.8	23 ± 11.1	10	80						mortality at 336 h ([5]; 750 mg/kg i.p.): 80%
C[C@@H]1O[C@@H](O[C@H]2[C@H](Oc3cc(O)c4c(c3)OC(c3ccc(O)cc3)CC4=O)O[C@H](CO)[C@@H](O)[C@@H]2O)[C@@H]2OC(C)(C)O[C@@H]2[C@H]1O (stereo partly drawn) [No. 8, 7-O-(2,3-O,O-isopropylidene-2-α-L-rhamnosyl-β-D-glucosyl)-naringenin]		25	0	9	70	42	60	28	27	22	24			0	0	0	62	74	78	73	inhibition in vivo at 100 mg/kg ([3]; 1/2 h): 23%; inhibition in vivo at 100 mg/kg ([3]; 1 h, 1 h 1/2): 85%; inhibition in vivo at 100 mg/kg ([3]; 1 h, 1 h): 64%; inhibition in vivo at 100 mg/kg ([3]; 2 h, 2 h): 75%; inhibition in vivo at 100 mg/kg ([3]; 3 h, 3 h): 48%; inhibition in vivo at 300 mg/kg ([3]; 3 h, 3 h): 50%; inhibition in vivo at 100 mg/kg ([3]; 4 h, 4 h): 48%; inhibition in vivo at 300 mg/kg ([3]; 4 h, 4 h): 50%; inhibition in vivo at 100 mg/kg ([3]; 5 h, 5 h): 35%; inhibition in vivo at 300 mg/kg ([3]; 5 h, 5 h): 33%; inhibition in vivo at 100 mg/kg ([3]; 6 h, 6 h): 37%; inhibition in vivo at 300 mg/kg ([3]; 6 h, 6 h): 35%
